Source: ChEMBL document CHEMBL2176918, “Design and optimization of pyrazinecarboxamide-based inhibitors of diacylglycerol acyltransferase 1 (DGAT1) leading to a clinical candidate dimethylpyrazinecarboxamide phenylcyclohexylacetic acid (AZD7687)” (J Med Chem, 2012)

What was measured:
[1] = Terminal half life in human at 1 to 20 mg; format: ADME, organism-based; conditions: in vivo, read-out: beta t1/2 (converted)
[2] = Fraction unbound in dog plasma; format: ADME, cell-free, Canis lupus familiaris
[3] = Half life in Han-Wistar rat at 2.54 to 5.4 uM/kg, po; format: ADME, organism-based; conditions: in vivo
[4] = molecular target: T1, Diacylglycerol O-acyltransferase 2 (Homo sapiens, UniProt Q96PD7); experiment: Inhibition of human DGAT2 by liquid scintillography
T1 sequence (Q96PD7 whole entry): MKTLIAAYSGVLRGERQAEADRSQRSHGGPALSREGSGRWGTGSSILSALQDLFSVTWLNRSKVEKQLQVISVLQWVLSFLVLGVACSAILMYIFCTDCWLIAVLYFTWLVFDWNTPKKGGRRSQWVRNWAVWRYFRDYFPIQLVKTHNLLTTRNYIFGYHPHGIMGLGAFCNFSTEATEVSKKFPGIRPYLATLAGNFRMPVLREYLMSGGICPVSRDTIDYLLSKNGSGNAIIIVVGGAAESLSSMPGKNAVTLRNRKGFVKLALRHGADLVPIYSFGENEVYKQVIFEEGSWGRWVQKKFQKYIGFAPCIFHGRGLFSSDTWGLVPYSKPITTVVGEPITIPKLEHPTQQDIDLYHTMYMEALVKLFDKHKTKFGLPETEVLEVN

[5] = Clearance in Beagle dog at 27.2 uM/kg, po or 1.4 uM/kg, iv; format: ADME, organism-based, Canis lupus familiaris; conditions: in vivo
[6] = molecular target: T2, Fatty-acid amide hydrolase 1 (Homo sapiens, UniProt O00519); experiment: Inhibition of FAAH
T2 sequence (O00519 whole entry): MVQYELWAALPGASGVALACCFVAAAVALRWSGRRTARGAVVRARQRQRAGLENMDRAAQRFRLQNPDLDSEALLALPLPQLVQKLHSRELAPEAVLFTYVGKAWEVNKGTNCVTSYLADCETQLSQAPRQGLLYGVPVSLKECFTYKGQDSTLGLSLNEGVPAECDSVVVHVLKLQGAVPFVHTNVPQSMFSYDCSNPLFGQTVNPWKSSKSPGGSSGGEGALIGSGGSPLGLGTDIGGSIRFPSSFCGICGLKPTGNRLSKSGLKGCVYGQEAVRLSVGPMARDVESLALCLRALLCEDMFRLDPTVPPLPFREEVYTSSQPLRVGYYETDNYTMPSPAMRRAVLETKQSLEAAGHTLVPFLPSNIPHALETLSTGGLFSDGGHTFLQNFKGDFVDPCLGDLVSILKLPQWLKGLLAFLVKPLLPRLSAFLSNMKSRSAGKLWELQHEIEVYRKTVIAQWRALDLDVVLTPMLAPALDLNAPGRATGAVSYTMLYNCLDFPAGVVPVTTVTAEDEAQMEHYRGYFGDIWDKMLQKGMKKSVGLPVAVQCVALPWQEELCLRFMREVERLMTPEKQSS

[7] = Tmax in human at 1 to 20 mg; format: ADME, organism-based; conditions: in vivo
[8] = molecular target: T3, Muscarinic acetylcholine receptor M2 (Homo sapiens, UniProt P08172); experiment: Inhibition of muscarinic M2 receptor
T3 sequence (P08172 whole entry): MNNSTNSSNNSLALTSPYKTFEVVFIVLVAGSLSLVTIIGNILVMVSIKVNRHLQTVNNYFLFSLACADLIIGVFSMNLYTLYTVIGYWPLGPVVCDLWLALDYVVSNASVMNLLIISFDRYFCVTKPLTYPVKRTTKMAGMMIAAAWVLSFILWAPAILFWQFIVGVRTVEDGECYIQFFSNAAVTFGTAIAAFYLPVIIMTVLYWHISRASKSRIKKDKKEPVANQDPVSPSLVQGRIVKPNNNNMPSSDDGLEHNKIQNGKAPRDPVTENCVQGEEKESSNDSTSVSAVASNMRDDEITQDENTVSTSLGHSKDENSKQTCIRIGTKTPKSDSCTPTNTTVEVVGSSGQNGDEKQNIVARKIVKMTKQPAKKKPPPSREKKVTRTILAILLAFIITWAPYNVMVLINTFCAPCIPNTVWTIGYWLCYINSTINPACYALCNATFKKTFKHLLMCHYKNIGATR

[9] = Chemical stability in pH 1 to 10 buffer at 25 degC; format: physicochemical

Cc1nc(C)c(-c2ccc(C3CCC(CC(=O)O)CC3)cc2)nc1C(N)=O (centres undefined) [AZD-7687]
half-life [1]: 9 h | fraction unbound [2]: 0.06 | half-life [3]: 14 h | IC50 [4]: > 300 µM | clearance [5]: 1.2 mL/min/kg | IC50 [6]: 3.7 µM | Tmax [7]: ≤ 1 h | IC50 [8]: 80.5 µM | half-life [9]: > 100 days
